Patent US20090216187A1, “Method of Treatment of Vascular Diseases” (priority 2008, published 2009)
Where two headings read alike, the source gives them in different places.

Key:
[1] = complete accidental incorporation of a balloon filling of about 3 ml; cited from earlier work
[2] = renal elimination after incorporation (animal experimental data); type: in vivo
Text: To date one accidental Rhenium-188 incorporation caused by balloon rupture has been reported. The measured total body dose of the treated patient was 113 mGy (image-based analysis) and 88 mGy (biological analysis), respectively. Thus, the measured radiation exposures were within the theoretical calculated ranges. [Paeng J. C., Lee D. S., Kang W. J., Yang H. M., Chung J. K., Jeong J. M., Chae I. H., Lee M. M., Lee M. C. “Dosimetry in leakage of (188)Re-DTPA during intracoronary balloon brachytherapy” Eur. J. Nucl. Med. Mol. Imaging. 2003; 30(9): 1263-1265]. […] Therefore, Rhenium-188 will remain in the body for about 2 days after incorporation. In the body Rhenium-188 is mainly absorbed by the thyroid (0.0167 mGy/MBq) and the stomach (0.013 mGy/MBq) [Knapp F. F., Jr., Guhlke S., Beets A. L., Lin W. Y., Stabin M., Amols H., Weinberger J. “Endovascular beta irradiation for prevention of restenosis using solution radioisotopes: pharmacologic and dosimetric properties of rhenium-188 compounds.” Cardiovasc. Radiat. Med. 1999; 1(1): 86-97; Lin W. Y., Tsai S. C., Hsieh B. T. Lee T. W., Ting G., Wang S. J “Evaluation of three rhenium-188 candidates for intravascular radiation therapy with liquid-filled balloons to prevent restenosis” J. Nucl. Cardiol. 2000; 7(1): 37-42]. […]

[3] = patient after balloon rupture, cited from earlier work
[4] = renal elimination after incorporation; animal experimental data; cited from earlier work
[5] = cited from earlier work
[6] = subsequent oral administration of perchlorate after Rhenium-188 incorporation; cited from earlier work

Rhenium-188-DPTA
theoretical calculated total body dose [1]: approximately 63 mGy

[188Re] [Rhenium-188]
time remaining in the body after incorporation [2]: about 2 days | measured total body dose ([3]; biological analysis): 88 mGy | measured total body dose ([3]; image-based analysis): 113 mGy | elimination half-life [4]: about 7 h | absorbed dose ([5]; stomach): 0.013 mGy/MBq | absorbed dose ([5]; thyroid): 0.0167 mGy/MBq

[O-][Cl+3]([O-])([O-])O [perchlorate]
whole-body radiation reduced to [6]: 38%
